Here are results for 2 compounds from patent US20060058250A1, “Methods of treating proliferative skin diseases using carbazole derivatives” (Cephalon, Inc., priority 2004, published 2006).

One experiment relates to keratinocytes. The conditions noted are these: cited from earlier work.
Experiment [1] deals with SCID-mouse-human skin model of psoriasis. The conditions noted are these: cited from earlier work.
The next experiment has as its system psoriasis. Put plainly: Case report: patient with severe psoriasis treated with oral lestaurtinib. The class given is in vivo, human. The conditions noted are these: person, severe psoriasis in the ankle region; oral solution 60 mg bid, 80 mg bid after 29 days; observed on day 60. Here is the method:
A patient with a history of renal and prostate cancer, arthritic pain and chronic bronchitis presented with severe psoriasis in the ankle region. The patient started treatment with lestaurtinib at a dosage of 60 mg bid. Lestaurtinib was administered twice daily as an oral solution at a concentration of 25 mg/mL in polysorbate 80 NF (10 mL) and propylene glycol USP (10 mL), diluted in juice. The following juices are approved for use to administer lestaurtinib: grape, pineapple, apple, V8® 100% vegetable juice, and orange juice (pulp free). After 29 days from initiation, the dosage was increased to 80 mg bid.

Take `COC(=O)[C@@]1(O)C[C@H]2O[C@]1(C)n1c3ccccc3c3c4c(c5c6ccccc6n2c5c31)C(=O)NC4` [Compound K-252a, K-252a]: in the experiment with keratinocytes, the “block of autocrine NGF loop and keratinocyte apoptosis” value was “can block an autocrine NGF loop and result in keratinocyte apoptosis”. Also, the “improvement in the skin condition” value in experiment [1] is given as “noticeable improvement in the skin condition”.
For the compound `C[C@]12O[C@H](C[C@]1(O)CO)n1c3ccccc3c3c4c(c5c6ccccc6n2c5c31)CNC4=O` [lestaurtinib], in the experiment on psoriasis, the remission of psoriasis result is “relative remission of psoriasis”.
